Read-outs that look alike come from different tables or passages of the source.

In data set [1] the target is T1, human serum albumin (Homo sapiens, UniProt P02768). Nature of the data set: Fluorescence quenching of HSA in the presence of a competitor (warfarin or cangrelor). Type of data set: binding. Details: purchased Sigma (St. Louis, MO, United States). The conditions noted are these: for Kd: mean [95% CI], n = 5–6. The protocol:
(§1) The fluorescence measurements for albumin-drug complexes were performed using a LS50B spectrofluorometer (Perkin Elmer, Waltham, MA, United States) equipped with 1.0 cm quartz cell. The fluorescence spectra for HSA solution (2.5 µM in 0.1 M phosphate buffer, pH 7.4) were recorded in the range of wavelength from 250 to 500 nm, with the excitation at 280 nm and the emission set at 350 nm. The slit widths for excitation and emission beams were set to 5 and 10 nm, respectively. The Perkin-Elmer FL WinLab software v. 4.00.03 was used to collect the measured data. An appropriate buffer blank spectrum was subtracted from the measured spectra for fluorescence background correction. The optical density of HSA solution was below 0.1 and within the albumin concentration range of 0‐2.5 µM we observed a linear relationship between protein concentration and fluorescence intensity (p < 0.0001, R^2 = 0.995). In consequence, the albumin fluorescence was not corrected for the inner filter effect. All measurements, except a thermodynamic analysis of the binding of antiplatelet compounds to HSA were performed at 25°C after 30 s incubation of a sample with the examined compound. Stock and working solutions of all compounds used in the experiments were prepared in PBS buffer, pH 7.4. The protein concentration was determined by BCA method ([Smith et al., 1985]).
[…]. [Chaves et al., 2018]; [Manjushree and Revanasiddappa, 2019]). […].
Furthermore, to determine whether one antiplatelet compound could be displaced from HSA by the other, the binding site marker experiments were repeated, i.e. by titration of HSA with PSB 0777 (0‒38.5 µM) in the presence of 2.5 µM cangrelor, instead of a marker.

Data set [2] addresses T1, human serum albumin. Briefly: Surface plasmon resonance binding to immobilized HSA (Biacore X). A general note: In SPR one partner is held on a chip, and binding of the other changes the refractive index at the surface.
Experimental: Briefly, 100 µg of HSA was dissolved in 1 ml of 10 mM sodium acetate buffer, pH 4.0, and immobilized on the flow cell 1 of the sensor chip surface. No protein was immobilized on the flow cell 2, which was used as a control. […] The curves from three independent experiments were analyzed by global curve fitting of the entire data set using the Langmuir binding model with the BIAevaluation 4.1.1 software (Biacore AG, Uppsala, Sweden).
For data set [3], the system named is platelets (platelet-rich plasma, isolated platelets). Nature of the data set: Inhibition of ADP-induced platelet activation (P-selectin/CD62P expression, flow cytometry). Type of data set: cell-based, human. The conditions noted are these: 17 nM, 10 μM ADP; for decrease of ADP-dependent platelet activation: n = 5; for inhibition at 0.017 µM: Homo sapiens, Platelet, n = 6. The method, then: Human blood was obtained from consecutively recruited healthy volunteers (simple random non-stratified sampling): four men and seven women; mean age 25 ± 5 years. All individuals provided their written informed consent to participate in the study. The exclusion criteria were the same as described previously ([Wzorek et al., 2020]). The study was approved by the Human Studies Committee of the Medical University of Lodz (Poland) and was conducted in accordance with the guidelines established by the Declaration of Helsinki. Whole blood was collected into polypropylene tubes with a blood-to-acid citrate dextrose solution (ACD) ratio of 6:1 (vol:vol).
Human platelet-rich plasma (PRP) was prepared by centrifuging of anticoagulated whole blood at 190 x g for 12 min at 37°C. Platelet-poor plasma (PPP) was prepared by centrifuging the whole blood fraction left after removal of the PRP at 2500 x g for 12 min at 37°C. Platelet count in PRP was measured with automated haematology analyzer Sysmex XS-800i™ (Sysmex, Kobe, Japan) and adjusted to 1 × 10^8 cells per ml.
Suspensions of isolated platelets were obtained from PRP separated from anticoagulated whole blood containing 50 ng/ml PGE1. PRP was centrifuged at 800 x g for 15 min at 37°C to obtain a platelet pellet. Platelet pellet was immediately suspended in the Tyrode buffer (134 mM NaCl, 12 mM NaHCO3, 2.9 mM KCl, 0.34 mM Na2HPO4, 1 mM MgCl2, 10 mM HEPES, 5 mM glucose, pH 7.4) and diluted to a count 1 × 10^8 per ml, as described above.
The effect of plasma or HSA on inhibition of platelet activation by cangrelor was assessed by two-colour flow cytometry with the use of anti-CD61/PerCP (for platelet gating) and anti-CD62/PE (for detection of activated platelets). The antiplatelet activity of cangrelor was evaluated in PRP and suspensions of isolated platelets, when the effect of plasma was examined, or in isolated platelets containing 4% HSA, when the effect of albumin was studied. […] The activated platelets were stained with antibodies prior to fixation as described previously ([Wzorek et al., 2020]). A total of 10,000 events were acquired in each experiment using a FACSCanto II flow cytometer and surface expression of CD62P (P-selectin) in platelets was analysed using FACS/Diva v. 6.0 software (Becton-Dickinson, Franklin Lakes, NJ, United States).

The target in data set [4] is T1, human serum albumin. Nature of the data set: Synchronous fluorescence spectra of HSA. Type of data set: binding. Set-up: purchased Sigma (St. Louis, MO, United States). The conditions noted are these: 0‒38.5 μM. The protocol: as §1
To monitor changes in the polarity around the tyrosine and tryptophan residues of HSA evoked by the examined compounds, the synchronous fluorescence spectra of HSA (Δλ 15 nm and Δλ 60 nm) were recorded in the presence of increasing concentrations of PSB 0777 and cangrelor (0‒38.5 μM with 4 μM intervals).

The target of data set [5] is T1, human serum albumin. Briefly: Fluorescence quenching of HSA (Stern-Volmer, saturation binding, van't Hoff analysis). To be noted: for Number of binding sites n / Kd: mean [95% CI]; for KA: KA = 1/KD; for decrease of HSA fluorescence: 2.5 µM HSA; for ΔH^θ / ΔS^θ: van't Hoff plot, 292, 302, 312 K.
Experimental: The fluorescence measurements for albumin-drug complexes were performed using a LS50B spectrofluorometer (Perkin Elmer, Waltham, MA, United States) equipped with 1.0 cm quartz cell. […] The slit widths for excitation and emission beams were set to 5 and 10 nm, respectively. The Perkin-Elmer FL WinLab software v. 4.00.03 was used to collect the measured data. An appropriate buffer blank spectrum was subtracted from the measured spectra for fluorescence background correction. […] In consequence, the albumin fluorescence was not corrected for the inner filter effect. All measurements, except a thermodynamic analysis of the binding of antiplatelet compounds to HSA were performed at 25°C after 30 s incubation of a sample with the examined compound. Stock and working solutions of all compounds used in the experiments were prepared in PBS buffer, pH 7.4.
To obtain the binding parameters: dissociation constant (KD) and the number of binding sites per protein molecule (n), the experimental data were fit to a saturation binding curve using nonlinear regression analysis.
The free energy change was estimated from the following relationship Eq. 4: ΔG^θ=ΔH^θ−TΔS^θ (4)
For data set [6], the system named is platelet function in whole blood. Details: method as in Boncler et al., 2018. To be noted: ref Boncler et al., 2018; cited from earlier work.
Another data set relates to HSA. The conditions noted are these: 2005, cited from earlier work.
The target in data set [7] is T1, human serum albumin. Details: purchased Sigma (St. Louis, MO, United States); method as in Boncler et al., 2018; Wzorek et al., 2020. To be noted: SPR; ref Boncler et al., 2018; Wzorek et al., 2020; read-out: affinity of binding to HSA (SPR); cited from earlier work.
The mark [8] stands for this setting: concentration range 0–5 μM, 25°C.
Where [9] appears, read: highest drug concentration 38.5 µM, n = 3.

T1 sequence (P02768 25-609): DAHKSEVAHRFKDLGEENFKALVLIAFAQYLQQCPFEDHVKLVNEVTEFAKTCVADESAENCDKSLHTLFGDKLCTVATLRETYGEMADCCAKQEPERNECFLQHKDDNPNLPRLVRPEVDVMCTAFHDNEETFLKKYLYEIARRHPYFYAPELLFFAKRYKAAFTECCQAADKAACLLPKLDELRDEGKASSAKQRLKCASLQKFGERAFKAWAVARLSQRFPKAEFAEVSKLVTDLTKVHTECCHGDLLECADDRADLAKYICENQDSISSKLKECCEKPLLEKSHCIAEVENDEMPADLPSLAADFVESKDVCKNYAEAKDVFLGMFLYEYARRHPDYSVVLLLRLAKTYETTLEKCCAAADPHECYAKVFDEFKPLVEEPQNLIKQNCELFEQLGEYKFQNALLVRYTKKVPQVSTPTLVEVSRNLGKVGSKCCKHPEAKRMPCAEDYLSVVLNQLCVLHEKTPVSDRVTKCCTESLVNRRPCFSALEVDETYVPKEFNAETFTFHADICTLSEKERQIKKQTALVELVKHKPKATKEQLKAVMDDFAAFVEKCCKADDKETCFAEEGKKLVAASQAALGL

For `CSCCNc1nc(SCCC(F)(F)F)nc2c1ncn2[C@@H]1O[C@H](COP(=O)(O)OP(=O)(O)C(Cl)(Cl)P(=O)(O)O)[C@@H](O)[C@H]1O` [cangrelor], the “increase of dissociation constant in the presence of competitor compared to control” value at human serum albumin [1] (competitor warfarin) was 2 fold. Further, on human serum albumin [1] (competitor warfarin 2.5 µM), the n with competitor was 1.39 [−0.07 to 2.85]. Besides, the Kd at human serum albumin [1] (competitor warfarin 2.5 µM, read-out: KD with competitor) was 16.8 µM; at human serum albumin [1] (control of the warfarin series, read-out: KD without competitor) it was 8.3 µM; at human serum albumin [2] (KA (equilibrium association constant), obtained from the binding rate constants), 16.3 µM; on human serum albumin [5] (0‒38.5 µM, nonlinear regression, n = 3) it was 10.9 µM; on human serum albumin [5] (292 K, n = 3) it was 14.5 µM; on human serum albumin [5] (302 K, n = 3) it was 9.7 µM. On human serum albumin [5] (312 K, n = 3), this compound yielded a Kd of 11.8 µM. The n without competitor on human serum albumin [1] (control of the warfarin series) is 1.10 [0.67‒1.52]. Moreover, the koff (usually the first-order rate constant of dissociation) on human serum albumin [2] (human, pH 7.4) was 0.0573 ± 0.000323 s⁻¹. Further, at human serum albumin [2] (human, pH 7.4), the kon (usually the second-order rate constant of association) came to 2820 ± 1.4e+06 M⁻¹ s⁻¹. Besides, the “decrease of ADP-dependent platelet activation” value in data set [3] (isolated platelets (compared with PRP)) was found to be 95%; in data set [3] (platelet-rich plasma), 77%. The inhibition (usually the percentage by which the read-out fell short of the control) at 0.017 µM is 97% in data set [3] (control isolated platelets without HSA) and 74% in data set [3] (isolated platelets with 4% HSA). The “mean red shift of emission peak” value on human serum albumin [4] (Δλ 15 nm (tyrosine)) worked out at 0.3 nm; at human serum albumin [4] (Δλ 60 nm (tryptophan)), 2.1 nm. Further, the “Number of binding sites n” value at human serum albumin [5] (0‒38.5 µM, n = 3) is 0.99 [−0.29 to 2.27]. Moreover, the results for the “ΔG^θ” value at human serum albumin [5] (292 K), at human serum albumin [5] (302 K) and at human serum albumin [5] (312 K) were -27.29 kJ/mol, -28.50 kJ/mol and -29.71 kJ/mol, respectively. Besides, the KA on human serum albumin [5] (302 K) was 10.31 [0.20‒6.97] × 10^4 [M^−1]; at human serum albumin [5] (312 K) it was 8.47 [0.19‒5.45] × 10^4 [M^−1]. Further, the “decrease of HSA fluorescence” value turned out to be 40% on human serum albumin [5] (setting [8]) and 75% at human serum albumin [5] (setting [9]). Moreover, the “ΔH^θ” value on human serum albumin [5] turned out to be 8.06 kJ/mol. The “ΔS^θ” value on human serum albumin [5] amounted to 121.01 J/mol * K. Further, in data set [6], the IC50 (as a rule, the concentration that inhibits the measured activity by half) is 0.017 µM.

For the compound `CC(C)Cc1ccc(C(C)C(=O)O)cc1` (centres unmarked) [ibuprofen], the “KA (binding constant) reported earlier” value in the data set on HSA (used in the racemic form, ref Dufour and Dangles) is listed as 10^5–10^6 M^−1.

`CC(=O)CC(c1ccccc1)c1c(O)c2ccccc2oc1=O` (centres unmarked) [warfarin]: in the data set with HSA (ref Yamasaki et al., 1996, Watanabe et al., 2001, Dufour and Dangles), the KA reported earlier was 10^4–10^5 M^−1.

As for `Nc1nc(SCCc2ccc(S(=O)(=O)O)cc2)nc2c1ncn2[C@@H]1O[C@H](CO)[C@@H](O)[C@H]1O` [PSB 0777], the “increase of dissociation constant in the presence of competitor compared to control” value came to 1.2 fold on human serum albumin [1] (competitor cangrelor) and 1.4 fold at human serum albumin [1] (competitor warfarin). For the same compound, the n with competitor is 0.65 [0.39‒0.92] on human serum albumin [1] (competitor cangrelor 2.5 µM) and 0.59 [0.19‒0.99] at human serum albumin [1] (competitor warfarin 2.5 µM). The results for the n without competitor at human serum albumin [1] (control of the cangrelor series) and at human serum albumin [1] (control of the warfarin series) were 0.61 [0.32‒0.89] and 0.69 [0.51‒0.88], respectively. The Kd at human serum albumin [7] is 80.6 µM. The entries for the “mean red shift of emission peak” value at human serum albumin [4] (Δλ 15 nm (tyrosine)) and on human serum albumin [4] (Δλ 60 nm (tryptophan)) were 0.5 nm and 0.8 nm, respectively. For the same compound, the “Number of binding sites n” value at human serum albumin [5] (0‒38.5 µM, n = 3) was 0.83 [−0.22 to 1.87]. The figures for the “ΔG^θ” value at human serum albumin [5] (292 K), on human serum albumin [5] (302 K) and on human serum albumin [5] (312 K) were -27.41 kJ/mol, -28.17 kJ/mol and -28.94 kJ/mol, respectively. The KA at human serum albumin [5] (302 K) is 6.43 [−5.24 to 1.99] × 10^4 [M^−1]; at human serum albumin [5] (312 K), 7.50 [−0.90 to 3.91] × 10^4 [M^−1]. The “decrease of HSA fluorescence” value on human serum albumin [5] (setting [8]) is listed as 25%; at human serum albumin [5] (setting [9]) it was 70%. Besides, the “ΔH^θ” value at human serum albumin [5] is -5.06 kJ/mol. Also, on human serum albumin [5], the “ΔS^θ” value is reported as 76.49 J/mol * K.

The record behind these values is publication PMC7990796, “Efficacy of a Combined Antiplatelet Therapy Is Not Affected by a Simultaneous Binding of Cangrelor and PSB 0777 to Albumin” (Frontiers in Pharmacology, 2021).
